The values below come from publication PMC9571093, “Synthesis and Characterization of Novel Hydrazone Derivatives of Isonicotinic Hydrazide and Their Evaluation for Antibacterial and Cytotoxic Potential” (Molecules, 2022).

≈ marks a conversion by molar mass, not a printed value.

The test system of series [1] is Bacillus subtilis ATCC 11774. The series can be described thus: Paper disc diffusion, zone of inhibition. Format: cell-based. To be noted: Bacillus subtilis, ATCC11774, 24 h, disc with 1000 µg mL−1 in DMSO, 37 °C. How it is done: (§1) All the synthesized compounds were screened for antibacterial activities using minimum inhibitory concentrations (MIC) and zone of inhibitions against Gram (+)and Gram (−) bacterial strains. ATCC strains of the test microorganism selected for antibacterial assay were Gram-positive bacteria; Staphylococcus aureus ATCC 25923, Bacillus subtilus ATCC 11774, and Gram-negative bacteria; Escherichia coli ATCC 10536. The bacterial strains’ stock cultures were kept in Nutrient agar (Oxoid, UK) at 4 °C and inocula were prepared by transferring several single colonies of microbes to a sterile Mueller Hinton broth. The bacterial cell suspension was mixed until homogeneity to give a final density of 5 × 10^5 cfu/mL
(§2) Preliminary screenings of synthesized compounds were conducted on agar plates using the disc diffusion method. The plates were prepared using Mueller–Hinton agar following the autoclave process (121 °C for 30 min). After cooling, the plates were inoculated with the suspension of microorganisms (S. aureus, B. subtilis and E. coli). The paper discs impregnated with the test compounds (1000 µg mL^−1 in dimethyl sulfoxide) were placed on the solidified medium and incubated at 37 °C for 24 hours before recording the zone of inhibition in millimeters.
In general terms: A growth-free zone around the sample is the usual read-out of agar diffusion tests.

Series [2] concerns Escherichia coli ATCC 10536. The series can be described thus: Paper disc diffusion, zone of inhibition. It counts as cell-based. To be noted: ATCC10536, disc with 1000 µg mL−1 in DMSO, 37 °C, 24 h. The protocol:
as §1, §2

The subject of series [3] is Staphylococcus aureus ATCC 25923. Description: Paper disc diffusion, zone of inhibition. To be noted: disc with 1000 µg mL−1 in DMSO, 37 °C; for zone of inhibition at 1000 µg/mL: Staphylococcus aureus, ATCC25923, 24 h. It counts as cell-based. The protocol: as §1, §2
For the next series, the system named is E. coli ATCC 10536. Description: Tetrazolium (MTT) microplate assay of minimum inhibitory concentration. It counts as cell-based. To be noted: Escherichia coli, ATCC10536. How it is done:
as §1
(§3) The minimum inhibitory concentrations of test microorganisms and reference material were determined using the tetrazolium microplate assay method. The assay was performed using a 96-well clear microtiter plate. Freshly harvested bacterial cell and fungal cell suspensions were seeded at 5 × 10^5 cfu/mL in each well of the 96-well plate. Different concentrations, 500 to 10 µg/mL, of the test compounds were diluted in series with Muller–Hinton broth. A volume of 200 µL of each concentration was added in triplicate to the wells and the plates were then incubated for 18–24 h at 37 °C ± 0.5. After incubation, in each well, 50 µL of 3-(4, 5-dimethylthiazol-2-yl)-2, 5-diphenyltetrazolium bromide MTT, having a concentration of 0.2 mg/mL, was added and the plate was incubated at 37 °C for 30 min. An appropriate solvent blank (DMSO) was included as the negative control and the bacterial suspension was included as the positive control. The absorbance was measured at 570 nm with a reference wavelength of 650 nm by adding DMSO using a spectrophotometer and the percentage reduction of the dye (indicating the bacterial growth inhibition) was calculated.

The next series deals with B. subtilis ATCC 11774. Described as above. Format: cell-based. To be noted: Bacillus subtilis, ATCC11774. How it is done: as §1, §3
In a further series the test system is S. aureus ATCC 25923. The description is as above. Format: cell-based. To be noted: Staphylococcus aureus, ATCC25923. How it is done: as §1, §3
Series [4] relates to Artemia salina (brine shrimp) nauplii. The series can be described thus: Brine shrimp lethality bioassay. Format: in vivo. To be noted: 24 h, concentration not given. How it is done:
The cytotoxicities of synthesized hydrazones were recorded by employing an in vitro brine shrimp lethality bioassay technique. The eggs of Artemia salina (brine shrimp) were allowed to incubate at 30 °C for 48 h under a light and dark cycle using artificial sea water before subjecting them to the sample solutions. The hatched larvae (nauplii) were collected with using a Pasteur pipette and were transferred to freshly prepared sea water (commercial salt and double-distilled water). The stock solutions of each compound were prepared at 500 µg/mL concentration in DMSO and sea water at 1:1, and further serial dilutions of 25, 50, 100, 200 and 300 µg/mL were prepared using sea water. Using a 2mL volume from each dilution, sea water containing 10 nauplii was added to a test tube and incubated for 24 h. A solvent mixture with nauplii containing no test compound was used as the control. After due time, the number of nauplii that survived was determined using a magnifying glass. The experiment was performed in triplicate and the median lethal concentration (LC50) ± SEM was calculated using regression analysis.

As usually defined, the zone of inhibition is the extent of the growth-free halo in a diffusion test. For the compound `NCC[C@H](O)C(=O)N[C@@H]1C[C@H](N)[C@@H](O[C@H]2O[C@H](CN)[C@@H](O)[C@H](O)[C@H]2O)[C@H](O)[C@H]1O[C@H]1O[C@H](CO)[C@@H](O)[C@H](N)[C@H]1O` [Amikacin, reference compound], the zone of inhibition at 1000 µg/mL in series [1] came out at 30 mm; in series [2], 38 mm; in series [3] it was 24 mm.

As usually defined, the inhibition is how much of the control response was suppressed. Lower therefore signals a weak effect. The term IC50 denotes the point on the concentration scale where inhibition reaches its midpoint. In the series on E. coli ATCC 10536, `CC1(C)S[C@@H]2[C@H](NC(=O)[C@H](N)c3ccc(O)cc3)C(=O)N2[C@H]1C(=O)O` [Amoxicillin, reference compound] gave an inhibition at 25 µg/mL of 40 ± 0.5%, an inhibition at 50 µg/mL of 66 ± 0.5%, an inhibition at 100 µg/mL of 85 ± 0.6% and an inhibition at 200 µg/mL of 96 ± 1%. In the series with E. coli ATCC 10536 (E. coli, concentration inhibiting 66 ± 0.5%), this compound yielded an IC50 of 50 µg/mL (≈ 137 µM).

In the series with B. subtilis ATCC 11774, `CO/N=C(\C(=O)N[C@@H]1C(=O)N2C(C(=O)O)=C(CSc3nc(=O)c(=O)[nH]n3C)CS[C@H]12)c1csc(N)n1` [Ceftriaxone, reference compound] showed an inhibition at 25 µg/mL of 40 ± 0.5%, an inhibition at 50 µg/mL of 55 ± 0.7%, an inhibition at 100 µg/mL of 79 ± 1.2% and an inhibition at 200 µg/mL of 92 ± 1.2%. The compound further gave an IC50 with B. subtilis ATCC 11774 (B. subtilis, concentration inhibiting 55 ± 0.7%) of 50 µg/mL (≈ 90.2 µM). In the series on S. aureus ATCC 25923, this compound displayed an inhibition at 25 µg/mL of 30 ± 0.8%, an inhibition at 50 µg/mL of 55 ± 0.3%, an inhibition at 100 µg/mL of 80 ± 1.2% and an inhibition at 200 µg/mL of 96 ± 1%. Further, the minimum inhibitory concentration in the series on S. aureus ATCC 25923 (S. aureus, concentration inhibiting 55 ± 0.3%, read-out: IC50) was found to be 50 µg/mL (≈ 90.2 µM).

For `COc1cc(/C=N/NC(=O)c2ccncc2)ccc1OCC(=O)OC(C)(C)C` [NH1, Tert-butyl (E)-2-(4-((2-Isonicotinoylhydrazineylidene)methyl)-2-methoxyphenoxy) Acetate], in series [1], the zone of inhibition at 1000 µg/mL came to 14 mm. In series [2], the zone of inhibition at 1000 µg/mL came to 25 mm. Further, the zone of inhibition at 1000 µg/mL in series [3] was 24 mm. In addition, the “Zone of Inhibition” value in series [3] (24 h) amounted to 20 mm. In the series with B. subtilis ATCC 11774, this compound displayed an inhibition at 50 µg/mL of 5 ± 0.3%, an inhibition at 100 µg/mL of 26 ± 0.3%, an inhibition at 200 µg/mL of 44 ± 0.4% and an inhibition at 300 µg/mL of 60 ± 0.5%. In the series on B. subtilis ATCC 11774, this compound returned an inhibition at 400 µg/mL of 75 ± 0.5%. In the series with E. coli ATCC 10536, this compound had an inhibition at 25 µg/mL of 9 ± 0.5%, an inhibition at 50 µg/mL of 18 ± 0.5%, an inhibition at 100 µg/mL of 40 ± 0.4% and an inhibition at 200 µg/mL of 60 ± 0.5%. In addition, the inhibition at 300 µg/mL in the series with E. coli ATCC 10536 was determined as 79 ± 1%. In the series on S. aureus ATCC 25923, this compound showed an inhibition at 50 µg/mL of 10 ± 0.6%, an inhibition at 100 µg/mL of 25 ± 0.7%, an inhibition at 200 µg/mL of 55 ± 1% and an inhibition at 300 µg/mL of 63 ± 1%. In addition, the inhibition at 400 µg/mL in the series on S. aureus ATCC 25923 stood at 69 ± 2%. Moreover, 500 µg/mL produced 80 ± 1.5% inhibition with S. aureus ATCC 25923 (500 µg/mL).

The compound `CC(C)(C)OC(=O)COc1ccc(/C=N/NC(=O)c2ccncc2)cc1` [NH2, Tert-butyl (E)-2-(4-((2-Isonicotinoylhydrazineylidene)methyl)phenoxy) Acetate] returned a zone of inhibition at 1000 µg/mL in series [1] of 14 mm. In addition, the zone of inhibition at 1000 µg/mL in series [2] came out at 14 mm. The zone of inhibition at 1000 µg/mL in series [3] came out at 15 mm. In the series with B. subtilis ATCC 11774, this compound gave an inhibition at 25 µg/mL of 4 ± 0.2%, an inhibition at 50 µg/mL of 12 ± 0.3%, an inhibition at 100 µg/mL of 22 ± 0.3% and an inhibition at 200 µg/mL of 44 ± 0.5%. Further, in the series on B. subtilis ATCC 11774, the inhibition at 300 µg/mL is 60 ± 0.5% and testing at 400 µg/mL gave an inhibition of 81 ± 0.6%. In addition, in the series with E. coli ATCC 10536, at 100 µg/mL the inhibition was 10 ± 0.3%, testing at 200 µg/mL gave an inhibition of 25 ± 0.3% and the inhibition at 300 µg/mL was 55 ± 0.5%. The same compound had an inhibition at 400 µg/mL in the series with E. coli ATCC 10536 (400 µg/mL) of 70 ± 0.3%. In the series on S. aureus ATCC 25923, this compound showed an inhibition at 25 µg/mL of 11 ± 1%, an inhibition at 50 µg/mL of 21 ± 1.2%, an inhibition at 100 µg/mL of 42 ± 2% and an inhibition at 200 µg/mL of 50 ± 2%. Also, in the series with S. aureus ATCC 25923, the inhibition at 300 µg/mL turned out to be 63 ± 1.5% and testing at 400 µg/mL gave an inhibition of 74 ± 2%.

For the compound `CC(C)=CCOc1ccc(/C=N/NC(=O)c2ccncc2)cc1` [NH4, (E)-N′-(4-((3-Methylbut-2-en-1-yl)oxy)benzylidene)isonicotinohydrazide], in series [1], the zone of inhibition at 1000 µg/mL was 23 mm. In series [2], this compound registered a zone of inhibition at 1000 µg/mL of 21 mm. This compound had a zone of inhibition at 1000 µg/mL in series [3] of 20 mm. Moreover, in the series on B. subtilis ATCC 11774, at 25 µg/mL the inhibition was 10 ± 0.7%, testing at 50 µg/mL gave an inhibition of 18 ± 0.6%, the inhibition at 100 µg/mL was 29 ± 0.8% and at 200 µg/mL the inhibition was 50 ± 1.1%. Also, in the series on B. subtilis ATCC 11774, the inhibition at 300 µg/mL came to 68 ± 1% and testing at 400 µg/mL gave an inhibition of 77 ± 0.8%. In addition, in the series with E. coli ATCC 10536, the inhibition at 50 µg/mL is 5 ± 0.5%, the inhibition at 100 µg/mL came out at 25 ± 0.5%, testing at 200 µg/mL gave an inhibition of 54 ± 0.4% and the inhibition at 300 µg/mL was 75 ± 0.8%. For the same compound, in the series with S. aureus ATCC 25923, testing at 25 µg/mL gave an inhibition of 16 ± 0.5%, the inhibition at 50 µg/mL was found to be 24 ± 1%, the inhibition at 100 µg/mL was found to be 38 ± 1.5% and testing at 200 µg/mL gave an inhibition of 55 ± 0.9%. Moreover, in the series with S. aureus ATCC 25923, the inhibition at 300 µg/mL came out at 71 ± 2% and testing at 400 µg/mL gave an inhibition of 89 ± 1.5%.

Consider `CCCOc1ccc(/C=N/NC(=O)c2ccncc2)cc1OC` [NH5, (E)-N′-(3-Methoxy-4-propoxybenzylidene) isonicotinohydrazide], for which the zone of inhibition at 1000 µg/mL amounted to 25 mm in series [1], 24 mm in series [2] and 22 mm in series [3]. Besides, the inhibition at 50 µg/mL in the series on B. subtilis ATCC 11774 amounted to 10 ± 0.5%; in the series with E. coli ATCC 10536, 18 ± 0.6%; in the series on S. aureus ATCC 25923, 12 ± 0.4%. For the same compound, the figures for the inhibition at 100 µg/mL with B. subtilis ATCC 11774, with E. coli ATCC 10536 and in the series on S. aureus ATCC 25923 were 26 ± 0.5%, 34 ± 0.3% and 35 ± 0.7%, respectively. In addition, the results for the inhibition at 200 µg/mL in the series on B. subtilis ATCC 11774, with E. coli ATCC 10536 and with S. aureus ATCC 25923 were 53 ± 0.6%, 58 ± 0.6% and 58 ± 1.1%, respectively. Moreover, the values for the inhibition at 300 µg/mL in the series with B. subtilis ATCC 11774, in the series on E. coli ATCC 10536 and in the series on S. aureus ATCC 25923 were 73 ± 0.8%, 79 ± 0.8% and 77 ± 1.5%, respectively. Also, the inhibition at 25 µg/mL was 10 ± 0.6% in the series with E. coli ATCC 10536 and 5 ± 0.4% in the series on S. aureus ATCC 25923. In series [4], this compound yielded a minimum survival percentage of 36.10 ± 3.45%.
